From patent US20250108100A1, “C-TERMINAL FRAGMENT OF APOLIPOPROTEIN E AND APPLICATION THEREOF IN INHIBITING y-SECRETASE ACTIVITY” (SYNPHATEC (SHANGHAI) BIOPHARMACEUTICAL TECHNOLOGY CO., LTD., priority 2022, published 2025)
“Also recorded” adds a separate entry of the source.

Key:
[1] = test system: human APP co-expressed in HEK 293T cells; assay: α-CTF produced by APP co-expressed in HEK 293T cells (Western blot); type: cell-based; conditions: for α-CTF produced by co-expressed APP: Western blot, vs GFP control
Method: • a) A plasmid expressing the target protein in mammalian cells was constructed, and the protein expression promoter is CAG. • b) The target protein was expressed in HEK 293T cell line. Cells were subcultured one day before transfection, and transfection was performed when the degree of cell adhesion reached 70%-80%. The transfection reagent was lipofectamine2000 (ThermoFisher). • c) 4-6 hours post transfection, the medium were replaced with fresh cell culture medium. • d) 36-48 hours post transfection, the cells were lysed (10% 1M tris-HCl (pH=6.8), 4% SDS, 20% glycerol, 0.01% bromophenol blue), and the protein samples were collected and used for Western blot or stored in a −80° C. freezer. • e) Polyacrylamide gel electrophoresis. Before protein loading, the protein was boiled at 98° C. for 10 min, and then centrifuged at 12000 rpm for 10 min. Electrophoresis: 80V for the upper stacking gel; 120V for the lower separating gel. • f) Protein transfer. The filter paper was soaked in the electrophoresis solution before use, and the PVDF membrane was put in methanol for 10s to activate, and the gel after electrophoresis was taken out from the electrophoresis tank, put in the order of filter paper—PVD membrane—gel-filter paper from bottom to top, and they were put into the transfer instrument, with transferring in constant current at 0.1 A for 70 min. • g) Blocking and antibody incubation: the transferred PVDF membrane was placed in 5% BSA/TBST blocking solution, and blocked on a shaker at room temperature for 1 hour. The primary antibody was used to incubate at 4° C. overnight on a shaker (12-16 h); 1×TBST was used to wash three times, once every 10 minutes; the secondary antibody was used to incubate, shaked at room temperature for 1-2 h; 1×TBST was used to wash three times, once every 10 minutes. • h) Imaging by development: development was performed with ECL chemiluminescence hypersensitive chromogenic reagent.
(§1) Plasmids were transfected in HEK 293T or N2A cells for 36-48 hours and then lysed in cell lysis buffer [10% 1M tris-HCl (pH=6.8), 4% SDS, 20% glycerol, 0.01% bromophenol blue]. Lysates were shaken at room temperature for 10 min, then boiled for 10 min, and centrifuged at 12,000×g for 10 min. Proteins were run on 8% or 12% Tris-glycine SDS-PAGE and transferred to PVDF membranes (Life Technologies). Samples were incubated overnight at 4° C. with primary antibody diluted in 5% BSA buffer (in 1×TBST). After washing 3 times with 1×TBST, they were incubated with secondary antibody diluted in 5% BSA buffer (in 1×TBST) for 2 hours at room temperature. Finally, after washing 3 times with 1×TBST, the signal was detected by ECL Western blotting substrate (Solarbio, PE0010).
(§2) Data were analyzed by GraphPad Prism software (v6) using unpaired, paired, or one-sample t-tests. Aβ40 and Aβ42 levels were normalized to the corresponding GFP controls. α-CTF levels were normalized to FL-APP and corresponding GFP controls. All data are represented as mean±SEM. Statistical significance was defined as p<0.05. One, two, three and four stars (*) in the graph indicate p-values <0.05, <0.01, <0.001 and <0.0001, respectively.

[2] = test system: γ-secretase (PS1, PS2) knockout HEK 293T cells; assay: PS1 KO, PS2 KO and PS1/2 dKO HEK 293T cell lines: α-CTF and Aβ40; type: cell-based, human; conditions: PS1 single knockout HEK 293T cells
Method: (§3) • a) A plasmid expressing the target protein in mammalian cells was constructed, and the protein expression promoter is CAG. • b) The target protein was expressed in HEK 293T cell line. Cells were subcultured one day before transfection, and transfection was performed when the degree of cell adhesion reached 70%-80%. The transfection reagent was lipofectamine2000 (ThermoFisher). • c) 4-6 hours post transfection, the medium were replaced with fresh cell culture medium. • d) 36-48 hours post transfection, the cells were lysed (10% 1M tris-HCl (pH=6.8), 4% SDS, 20% glycerol, 0.01% bromophenol blue), and the protein samples were collected and used for Western blot or stored in a −80° C. freezer. • e) Polyacrylamide gel electrophoresis. Before protein loading, the protein was boiled at 98° C. for 10 min, and then centrifuged at 12000 rpm for 10 min. Electrophoresis: 80V for the upper stacking gel; 120V for the lower separating gel. • f) Protein transfer. […]

[3] = biological target: T1, human γ-secretase (Homo sapiens, UniProt P49768); assay: Purified system: cleavage of purified β-CTF by purified γ-secretase to Aβ40 (ELISA); type: biochemical
T1 construct: full-length PS1, FL-PS1; N-terminal fragment of PS1, PS1 NTF; C-terminal fragment of PS1, PS1 CTF; made in house; host or cells: HEK 293T

[4] = test system: APLP1; assay: γ-cleavage of APLP1 expressed in HEK 293T cells (Western blot); type: cell-based; conditions: PF03084014 at 1 μM
Method: as §3
Plasmids were transfected in HEK 293T or N2A cells for 36-48 hours and then lysed in cell lysis buffer [10% 1M tris-HCl (pH=6.8), 4% SDS, 20% glycerol, 0.01% bromophenol blue]. […] Finally, after washing 3 times with 1×TBST, the signal was detected by ECL Western blotting substrate (Solarbio, PE0010).

[5] = test system: N100 (NOTCH fragment); assay: γ-cleavage of NOTCH fragment N100 in HEK 293T cells co-expressing γ-secretase (Western blot); type: cell-based; conditions: N100-V5 and γ-secretase, PF03084014 at 1 uM
Method: as §1

[6] = test system: endogenously expressed APP in primary cultured mouse neurons; assay: APP metabolite ~14 kD CTF in primary cultured mouse neurons (Western blot); type: cell-based; conditions: PF03084014 at 1 uM
[7] = test system: human APP and β-secretase co-expressed in HEK 293T cells; assay: HEK 293T cells co-expressing APP and β-secretase (BACE1): Aβ ELISA and β-CTF Western blot; type: cell-based; conditions: APP and β-secretase co-expressed, ELISA, vs GFP control
Method: The experiment was performed according to the standard procedure in the ELISA analysis kit of Invitrogen Company. • a) The target protein was expressed in HEK 293T cell line. Cells were subcultured one day before transfection, and transfection was performed when the degree of cell adhesion reached 70%-80%. The transfection reagent was lipofectamine2000 (ThermoFisher). • b) 4-6 hours post transfection, medium were replaced with fresh cell culture medium. • c) 36-48 hours post transfection, the cell culture medium was collected, and then the ELISA process was performed or the cell culture medium was frozen in a −80° C. refrigerator. • d) 50 μl of standard samples and experimental samples were added to each well of the 96-well plate. • e) 50 μl of human-derived Aβ40 or Aβ42 or mouse-derived Aβ40 detection antibody was added to each well of the 96-well plate. • f) The above samples were shaken gently and placed at room temperature for 3 hours. • g) The liquid in the well were removed, and the plate was washed 4 times with 1× wash buffer. • h) 100 μl of the buffer containing 1× anti-Rabbit IgG HRP was added. • i) The plate was shaken gently and placed at room temperature for […]. • j) The liquid in the well were removed, and the well was washed 4 times with 1× wash buffer. • k) 100 μl of Stabilized Chromogen was added to each well, and the plate was placed in the dark for 30 minutes at room temperature. • l) 100 μl of Stop Solution was added to each well. • m) The absorbance at 450 nm was measured with a microplate reader. 2.4 qRT-PCR
48 hours after transfection of HEK 293T cells and N2A cells, or 4.5 days after lentivirus infection of neurons, media and lysates were collected. Aβ40 and Aβ42 in the culture medium and cell lysates were detected by an Aβ ELISA kit as indicated in the protocol. (Invitrogen Technology; KHB3481 for human Aβ40, KHB3441 for human Aβ42 and KMB3481 for mouse Aβ40).
as §2

[8] = test system: APP co-expressed in mouse neuron cell line N2A; assay: α-CTF produced by APP co-expressed in N2A cells (Western blot); type: cell-based; conditions: Western blot, vs GFP control
Method: as §1, §2

[9] = test system: APP; assay: APEX2 proximity labeling between ApoE and APP in HEK 293T cells; type: binding, human; conditions: co-expressed in HEK 293T cells
Method: (§4) A method for detecting protein interactions in living cells by targeting APEX2 was applied as previously described (Hung et al., 2016). Approximately 30 hours after transfection with APEX2 plasmids via Lipofectamine2000 (Invitrogen Technology), HEK 293T cells were incubated in 1 ml of complete medium with or without 250 uM biotinphenol (BP) for 30 minutes at 37° C. Cells were treated with 1 mM H2O2 for 1 min and cells were washed 3 times in quencher solution (10 mM sodium ascorbate, 5 mM Trolox and 10 mM sodium azide solution in 1×DPBS). Cells were lysed in RIPA lysis buffer (1× protein inhibitor cocktail, 1 mM PMSF and 10 mM sodium ascorbate, 5 mM Trolox and 10 mM sodium azide). The lysate was sonicated and centrifuged on ice (12,000×g, 4° C., 10 min), and the supernatant was incubated with streptavidin magnetic beads overnight at 4° C. The beads were collected using a magnetic rack and washed with a series of buffers (twice with RIPA buffer, once with 1M KCl, once with 0.1M Na2CO3, twice with 2 M urea in 10 mM Tris-HCl, pH 8.0, and twice with RIPA lysis buffer. Biotinylated proteins were eluted from the beads by boiling each sample in loading buffer comprising 2 mM biotin and 20 mM DTT for 10 min, and the eluates were collected. Samples proceed to Western blot.

[10] = test system: endogenously expressed APP; assay: APEX2 proximity labeling of endogenous APP in primary cultured neurons; type: binding; conditions: primary cultured rat neurons
[11] = biological target: T2, ADAM10 (α-secretase) (Homo sapiens, UniProt O14672); assay: ApoE2-APEX2 proximity labeling of co-expressed ADAM10 in HEK 293T cells; type: binding
T2 construct: expressed in transfected cells; host or cells: HEK 293T
T2 sequence (O14672 214-748): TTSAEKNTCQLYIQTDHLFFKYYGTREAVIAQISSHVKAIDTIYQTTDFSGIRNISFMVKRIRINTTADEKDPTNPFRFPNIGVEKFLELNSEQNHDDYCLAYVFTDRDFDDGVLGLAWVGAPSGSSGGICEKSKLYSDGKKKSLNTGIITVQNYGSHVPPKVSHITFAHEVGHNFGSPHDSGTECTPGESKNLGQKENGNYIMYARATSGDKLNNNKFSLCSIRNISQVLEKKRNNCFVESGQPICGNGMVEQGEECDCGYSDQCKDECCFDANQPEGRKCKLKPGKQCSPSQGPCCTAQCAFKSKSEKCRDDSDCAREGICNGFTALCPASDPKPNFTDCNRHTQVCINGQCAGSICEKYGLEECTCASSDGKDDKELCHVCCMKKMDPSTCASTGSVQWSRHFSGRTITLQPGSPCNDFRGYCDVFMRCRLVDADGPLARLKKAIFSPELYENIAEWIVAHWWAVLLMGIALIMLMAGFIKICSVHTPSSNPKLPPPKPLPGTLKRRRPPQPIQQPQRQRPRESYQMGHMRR
Method: as §4

[12] = biological target: T3, PS2 (Homo sapiens, UniProt P49810); assay: ApoE2-APEX2 proximity labeling of co-expressed PS2 in HEK 293T cells; type: binding
T3 construct: expressed in transfected cells; host or cells: HEK 293T
Method: as §4

Chain of APP (P05067 672-770 limits assumed): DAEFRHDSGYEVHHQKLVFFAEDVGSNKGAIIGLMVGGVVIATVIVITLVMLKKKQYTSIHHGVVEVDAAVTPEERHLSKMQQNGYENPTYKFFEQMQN

Compound: CCC[C@H](N[C@H]1CCc2cc(F)cc(F)c2C1)C(=O)Nc1cn(C(C)(C)CNCC(C)(C)C)cn1 [PF03084014]
- α-CTF produced by APP co-expressed with PS1 ([1]; APP and PS1 co-expressed, PF03084014 at 1 μM): significantly increases α-CTF; also recorded: can increase the production of α-CTF; also recorded: also increases α-CTF
- α-CTF in PS1 KO cells [2]: further increased α-CTF levels
- generation of Aβ by γ-secretase and β-CTF ([3]; 10 μM inhibitor): can inhibit the generation of Aβ; also recorded: can be inhibited
- Aβ40 produced by incubation of γ-secretase with β-CTF ([3]; Example 2, legend b49: 1 uM inhibitor): complete blocked
- α-like CTF of APLP1 [4]: significantly increase the α-like CTF; also recorded: enhancing its cleavage product; also recorded: increased the α-like CTF
- γ-secretase-dependent reduction of N100 [5]: reversed this reduction
- level of ~14 kD CTF (CTF141D) produced by APP metabolism [6]: significantly increased

Compound: ApoE2-V5: ApoE2 with tag protein V5 (SEQ ID NO: 82) at C-terminal
- α-CTF produced by co-expressed APP [1]: can significantly increase the α-CTF

Compound: ApoE3: human apolipoprotein E3, full-length 299 amino acid residues, SEQ ID NO: 89
- α-CTF produced by co-expressed APP [1]: can significantly increase α-CTF; also recorded: significantly increased the α-CTF levels
- production of Aβ40 [7]: have no such effect
- α-CTF produced by co-expressed APP [8]: significantly increased the α-CTF levels

Compound: ApoE2-APEX2: ApoE2 fused to APEX2 (ascorbate peroxidase 2) for proximity labeling
- biotinylation of FL-APP and α-CTF [9]: could also be biotinylated
- biotinylation of endogenously expressed APP [10]: biotinylates
- biotinylation of co-expressed ADAM10 [11]: biotinylated
- biotinylation of co-expressed PS2 [12]: biotinylated

Compound: CT ND3CD25: SEQ ID NO: 32; ApoE CT minus 3 N-terminal and 25 C-terminal residues (EEMGSRTRDRLDEVKEQVAEVRAKLEEQAQQIRLQAEAFQARLKSWFEPLVEDMQR)
- production of Aβ40 [7]: can still significantly reduce Aβ40

Compound: ApoA1: another apolipoprotein co-expressed with APP, apolipoprotein A1
- α-CTF produced by co-expressed APP [1]: failed to alter the levels of α-CTF
- production of Aβ40 [7]: failed to alter

Compound: CNC(=O)[C@@H](NC(=O)[C@H](CCCc1ccccc1)[C@H](C)N(O)C=O)C(C)(C)C [GI254023X, reference compound]
- α-CTF level after ADAM10 inhibitor ([1]; 1 μM): about 45%

Compound: V5-ApoE2: ApoE2 with tag protein V5 (SEQ ID NO: 82) at N-terminal
- α-CTF produced by co-expressed APP [1]: can significantly increase the α-CTF

Compound: ApoE4: human ApoE isoform ApoE4 (Arg112; Arg158)
- α-CTF produced by co-expressed APP [1]: cannot significantly change α-CTF
- production of Aβ40 [7]: have no such effect; also recorded: failed to alter
- α-CTF produced by co-expressed APP [8]: failed to alter α-CTF levels
